Paper PMC4689404, “2-Benzazolyl-4-Piperazin-1-Ylsulfonylbenzenecarbohydroxamic Acids as Novel Selective Histone Deacetylase-6 Inhibitors with Antiproliferative Activity” (PLoS ONE, 2015)

Tests used:
Test in all cases: NCI 60 screen, five dose
[1] = test system: Prostate Cancer cell lines; type: cell-based, human; details: for GI50: Homo sapiens; for no. cell lines used for the assay/no inhibited by compound: figures in parenthesis
HL-60(TB) = type: cell-based; details: Homo sapiens, Leukemia, GI50 = molar concentration, read-out: Log10 GI50 (converted)
K-562 = type: cell-based; details: Homo sapiens, K562, Leukemia, GI50 = molar concentration, read-out: Log10 GI50 (converted)
NCI-H460 = type: cell-based; details: Homo sapiens, Non-Small Cell Lung Cancer, GI50 = molar concentration, read-out: Log10 GI50 (converted)
COLO 205 = type: cell-based; details: Homo sapiens, Colon Cancer, GI50 = molar concentration, read-out: Log10 GI50 (converted)
SN12C = type: cell-based; details: Homo sapiens, Renal Cancer, GI50 = molar concentration, read-out: Log10 GI50 (converted)
MDA-MB-468 = type: cell-based; details: Homo sapiens, Breast Cancer, GI50 = molar concentration, read-out: Log10 GI50 (converted)
MOLT-4 = type: cell-based; details: Homo sapiens, Leukemia, GI50 = molar concentration, read-out: Log10 GI50 (converted)
SR = type: cell-based; details: Homo sapiens, Leukemia, GI50 = molar concentration, read-out: Log10 GI50 (converted)
HT29 = type: cell-based; details: Homo sapiens, HT-29, Colon Cancer, GI50 = molar concentration, read-out: Log10 GI50 (converted)
OVCAR-3 = type: cell-based; details: Homo sapiens, Ovarian Cancer, GI50 = molar concentration, read-out: Log10 GI50 (converted)
HS 578T = type: cell-based; details: Homo sapiens, Breast Cancer, GI50 = molar concentration, read-out: Log10 GI50 (converted)

Structure (SMILES)	GI50 [1] [µM]	no. cell lines used for the assay/no inhibited by compound [1]	GI50 (HL-60(TB)) [µM]	GI50 (K-562) [µM]	GI50 (NCI-H460) [µM]	GI50 (COLO 205) [µM]	GI50 (SN12C) [µM]	GI50 (MDA-MB-468) [µM]	GI50 (MOLT-4) [µM]	GI50 (SR) [µM]	GI50 (HT29) [µM]	GI50 (OVCAR-3) [µM]	GI50 (HS 578T) [µM]
O=C(NO)c1ccc(S(=O)(=O)N2CCN(c3nc4ccccc4o3)CC2)cc1 [Compound 9c, 4-(4-Benzoxazol-2-yl-piperazin-1-sulfonyl)-N -hydroxy-benzamid]	4.89	2/2	5.89	6.31	10.7	1.7	11.7	11	–	–	–	–	–
O=C(NO)c1ccc(S(=O)(=O)N2CCN(c3nc4ccccc4s3)CC2)cc1 [Compound 9d, 4-(4-Benzothiazol-2-yl-piperazin-1-sulfonyl)-N -hydroxy-benzamid]	2.48	2/2	2.57	–	5.13	3.02	10.5	–	3.02	1.12	5.62	3.02	1.45
